From PubChem BioAssay (NCI)
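Five compound concentrations were applied to cells in 96-well plates for 48 hours; endpoints were derived by simple linear interpolation of the resulting dose-response curve. TGI: concentration producing complete growth inhibition.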

These molecules were tested on MDA-MB-231 breast (assay: NCI-60 cell line screen, 48 h).

SMILES	TGI [µM]
CCCCI(O)OS(=O)(=O)c1ccc(C)cc1	> 100
C[C@@H]1CC[C@@]2(C)C(C(=O)O)=CCCC2[C@@]1(C)CC(=O)c1ccoc1 (stereo not given in full)	> 25
O=C(CCc1cc(O)cc(O)c1)NCCc1cc(OCc2ccccc2)cc(OCc2ccccc2)c1	39.3
Clc1cccc(-c2sc(-c3cccs3)cc2Cc2cccs2)c1	> 10
c1ccc(C2=NC3OC2c2ccccc23)cc1 (stereo not given)	> 10
CCOC(=O)CSc1nc(N)c2c(-c3ccccc3)c3c(nc2n1)CCCC3	> 100
COC(=O)/C=C(/C=C1/C(C#N)=C(N)N(c2ccc(Cl)cc2)C1(C)/C(=C\C(=O)OC)C(=O)OC)C(=O)OC (stereo not given)	53.4
O=c1c2c3c(sc2[nH]c(=S)n1-c1ccccc1)CCCc1ccc([N+](=O)[O-])cc1-3	> 100
CCOC(=O)c1c(N2CCCC2)[nH]c(=O)c(C(c2ccc(OC)cc2)c2c(O)c(C(=O)OCC)c(N3CCCC3)[nH]c2=O)c1O	88.1
CCOC1C=CC(=O)C(CO)O1 (stereo not given)	32.1
CN(C)C(=O)C(F)(F)C(c1ccc(F)cc1)C1C(=O)N(C)C(=O)N(C)C1=O (stereo not given)	> 100
Cc1c2cccc-2c2cc(O)c3ccccc3c2n1-c1ccc(N(C)C)cc1	9.75
O=c1[nH]c(NCc2ccncc2)nc2nc[nH]c12	> 100
O=CC(I)=C(c1ccccc1)c1ccccc1	29
c1c[nH]c(-c2cccc3nsnc23)c1	> 100
Cn1c2ccccc2c2ccc3c(c21)C(=O)c1ccc2c4ccccc4n(C)c2c1C3=O	> 100
Cc1ccc(-c2cc(-c3ccco3)c(C#N)c(=S)[nH]2)cc1	> 100
NS(=O)(=O)c1nnc(NC(=O)N(c2ccccc2)c2ccccc2)s1	> 100
COCOc1ccc(C(=O)Oc2cccc3c2OC(C)(C)O3)c(OCOC)c1	> 100
CN(C)CCN(c1ccccn1)c1ccccn1	> 100
O=C(O)c1nc2ccc(C(F)(F)F)cc2[nH]c1=O	> 100
CN(CCN1CCCC1)C1CCc2cc(Cl)c(Cl)cc2C1 (stereo not given)	34.7
COC(=O)CNC(=O)C(CSC(=O)OCC1c2ccccc2-c2ccccc21)NC(=O)CCC(NC(=O)OCC1c2ccccc2-c2ccccc21)C(=O)OC (stereo not given)	30.2
CC(C)NC(=O)OCc1c(COC(=O)NC(C)C)n(C)c2c1ccc1sccc12	52
O=C(CC(NC(=O)C(F)(F)F)C(=O)O)OCc1ccccc1 (stereo not given)	> 100
CN(/N=C1\C(=O)Nc2ccccc21)c1ccccc1	62.5

The molecules below were run on RPMI-8226 leukemia (assay: NCI-60 cell line screen, 48 h).

SMILES	TGI [µM]
COc1ccc2ccc3oc(=O)c(C)cc3c2c1	> 100
CCCCCCN(CCCCCC)C(=S)N/N=C(\C)c1ccccn1	3.22
O=c1c(F)cn2c(=O)n1CCCCCCCn1c(=O)c(F)cn(c1=O)CCCCCCC2	> 100
Cc1nnc2n(c1=O)CCCN2C	> 100
O=C(ON=C1c2ccccc2C(Br)C(Br)c2ccccc21)c1ccccc1 (stereo not given)	14.7
Nc1ncnc2c1nnn2C1C=CC(CP(=O)(O)O)C1 (stereo not given)	> 100
CC(=O)c1ccc(Oc2c3ccccc3nc3ccccc23)cc1	9.63
Cn1c2ccccc2n2c3ncccc3c(=O)c(C#N)c12	> 100
S=C(Cc1ccc2c(c1)Sc1ccccc1O2)N1CCOCC1	> 100
C[n+]1cc2cc(O)c(O)cc2c2ccc3cc(O)c(O)cc3c21	> 100
COc1ccc(N=Nc2c(-c3c(OC)cc4occc4c3OC)[nH]c(=O)c(C#N)c2C)cc1	> 100
O=C(/C=C/c1ccc(Cl)cc1)Oc1ccc(C=C2CCC/C(=C\c3ccc(OC(=O)/C=C/c4ccc(Cl)cc4)cc3)C2=O)cc1	97.1
COc1ccc2c(c1)c1c(n2CCN2CCCCC2)-c2cccc(OC)c2CC1	35.5
COc1ccc2nc(NC(=O)/C(C#N)=C/c3ccccc3)sc2c1	> 84.5
Cc1c(C)n(-c2ccccc2)c2nc(S(C)=O)nc(S(C)=O)c12 (stereo not given)	5.28
CC1(C)CC(=O)C2=C(C1)C(c1ccccc1Cl)C1C(=O)CC(C)(C)CC1(O)O2 (stereo not given)	> 100
Cn1nc(-c2ccc(S(=O)(=O)/N=C(\NN)Nc3ccc(Cl)cc3)s2)cc1C(F)(F)F	56
Cc1ccc2c(c1C)C(=O)C1(Cc3cc4c(cc3C1=O)CCC4)C2 (stereo not given)	> 100
CCCCI(O)OS(=O)(=O)c1ccc(C)cc1	> 100
C[C@@H]1CC[C@@]2(C)C(C(=O)O)=CCCC2[C@@]1(C)CC(=O)c1ccoc1 (stereo not given in full)	> 25
O=C(CCc1cc(O)cc(O)c1)NCCc1cc(OCc2ccccc2)cc(OCc2ccccc2)c1	54
Clc1cccc(-c2sc(-c3cccs3)cc2Cc2cccs2)c1	> 10

SMILES	TGI [µM]
c1ccc(C2=NC3OC2c2ccccc23)cc1 (stereo not given)	> 10
CCOC(=O)CSc1nc(N)c2c(-c3ccccc3)c3c(nc2n1)CCCC3	> 100
COC(=O)/C=C(/C=C1/C(C#N)=C(N)N(c2ccc(Cl)cc2)C1(C)/C(=C\C(=O)OC)C(=O)OC)C(=O)OC (stereo not given)	> 100
O=c1c2c3c(sc2[nH]c(=S)n1-c1ccccc1)CCCc1ccc([N+](=O)[O-])cc1-3	62.7
CCOC(=O)c1c(N2CCCC2)[nH]c(=O)c(C(c2ccc(OC)cc2)c2c(O)c(C(=O)OCC)c(N3CCCC3)[nH]c2=O)c1O	> 100
CCOC1C=CC(=O)C(CO)O1 (stereo not given)	6
CN(C)C(=O)C(F)(F)C(c1ccc(F)cc1)C1C(=O)N(C)C(=O)N(C)C1=O (stereo not given)	> 100
Cc1c2cccc-2c2cc(O)c3ccccc3c2n1-c1ccc(N(C)C)cc1	26.6
O=c1[nH]c(NCc2ccncc2)nc2nc[nH]c12	> 100
O=CC(I)=C(c1ccccc1)c1ccccc1	> 59
c1c[nH]c(-c2cccc3nsnc23)c1	> 100
Cn1c2ccccc2c2ccc3c(c21)C(=O)c1ccc2c4ccccc4n(C)c2c1C3=O	> 100
Cc1ccc(-c2cc(-c3ccco3)c(C#N)c(=S)[nH]2)cc1	> 100
NS(=O)(=O)c1nnc(NC(=O)N(c2ccccc2)c2ccccc2)s1	49.4
COCOc1ccc(C(=O)Oc2cccc3c2OC(C)(C)O3)c(OCOC)c1	> 100
CN(C)CCN(c1ccccn1)c1ccccn1	> 100
O=C(O)c1nc2ccc(C(F)(F)F)cc2[nH]c1=O	> 100
CN(CCN1CCCC1)C1CCc2cc(Cl)c(Cl)cc2C1 (stereo not given)	55.4
COC(=O)CNC(=O)C(CSC(=O)OCC1c2ccccc2-c2ccccc21)NC(=O)CCC(NC(=O)OCC1c2ccccc2-c2ccccc21)C(=O)OC (stereo not given)	90.1
CC(C)NC(=O)OCc1c(COC(=O)NC(C)C)n(C)c2c1ccc1sccc12	> 58.8
O=C(CC(NC(=O)C(F)(F)F)C(=O)O)OCc1ccccc1 (stereo not given)	> 100
CN(/N=C1\C(=O)Nc2ccccc21)c1ccccc1	> 100

Each molecule was assayed on NCI-H460 lung (assay: NCI-60 cell line screen, 48 h).

SMILES	TGI [µM]
COc1ccc2ccc3oc(=O)c(C)cc3c2c1	> 100
CCCCCCN(CCCCCC)C(=S)N/N=C(\C)c1ccccn1	2.97
O=c1c(F)cn2c(=O)n1CCCCCCCn1c(=O)c(F)cn(c1=O)CCCCCCC2	> 100
Cc1nnc2n(c1=O)CCCN2C	> 100
O=C(ON=C1c2ccccc2C(Br)C(Br)c2ccccc21)c1ccccc1 (stereo not given)	18.8
Nc1ncnc2c1nnn2C1C=CC(CP(=O)(O)O)C1 (stereo not given)	> 100
CC(=O)c1ccc(Oc2c3ccccc3nc3ccccc23)cc1	31.9
Cn1c2ccccc2n2c3ncccc3c(=O)c(C#N)c12	> 40.7
S=C(Cc1ccc2c(c1)Sc1ccccc1O2)N1CCOCC1	> 100
C[n+]1cc2cc(O)c(O)cc2c2ccc3cc(O)c(O)cc3c21	> 60.2
COc1ccc(N=Nc2c(-c3c(OC)cc4occc4c3OC)[nH]c(=O)c(C#N)c2C)cc1	> 100
O=C(/C=C/c1ccc(Cl)cc1)Oc1ccc(C=C2CCC/C(=C\c3ccc(OC(=O)/C=C/c4ccc(Cl)cc4)cc3)C2=O)cc1	> 100
COc1ccc2c(c1)c1c(n2CCN2CCCCC2)-c2cccc(OC)c2CC1	55.9
COc1ccc2nc(NC(=O)/C(C#N)=C/c3ccccc3)sc2c1	> 100
Cc1c(C)n(-c2ccccc2)c2nc(S(C)=O)nc(S(C)=O)c12 (stereo not given)	43.4
CC1(C)CC(=O)C2=C(C1)C(c1ccccc1Cl)C1C(=O)CC(C)(C)CC1(O)O2 (stereo not given)	> 100
Cn1nc(-c2ccc(S(=O)(=O)/N=C(\NN)Nc3ccc(Cl)cc3)s2)cc1C(F)(F)F	37.9
Cc1ccc2c(c1C)C(=O)C1(Cc3cc4c(cc3C1=O)CCC4)C2 (stereo not given)	> 100

SMILES	TGI [µM]
C[C@@H]1CC[C@@]2(C)C(C(=O)O)=CCCC2[C@@]1(C)CC(=O)c1ccoc1 (stereo not given in full)	> 25
O=C(CCc1cc(O)cc(O)c1)NCCc1cc(OCc2ccccc2)cc(OCc2ccccc2)c1	14.4
Clc1cccc(-c2sc(-c3cccs3)cc2Cc2cccs2)c1	> 10
c1ccc(C2=NC3OC2c2ccccc23)cc1 (stereo not given)	> 10
CCOC(=O)CSc1nc(N)c2c(-c3ccccc3)c3c(nc2n1)CCCC3	> 100
COC(=O)/C=C(/C=C1/C(C#N)=C(N)N(c2ccc(Cl)cc2)C1(C)/C(=C\C(=O)OC)C(=O)OC)C(=O)OC (stereo not given)	46.3
O=c1c2c3c(sc2[nH]c(=S)n1-c1ccccc1)CCCc1ccc([N+](=O)[O-])cc1-3	> 100
CCOC(=O)c1c(N2CCCC2)[nH]c(=O)c(C(c2ccc(OC)cc2)c2c(O)c(C(=O)OCC)c(N3CCCC3)[nH]c2=O)c1O	> 100
CCOC1C=CC(=O)C(CO)O1 (stereo not given)	30.9
CN(C)C(=O)C(F)(F)C(c1ccc(F)cc1)C1C(=O)N(C)C(=O)N(C)C1=O (stereo not given)	> 100
Cc1c2cccc-2c2cc(O)c3ccccc3c2n1-c1ccc(N(C)C)cc1	59
O=c1[nH]c(NCc2ccncc2)nc2nc[nH]c12	> 100
O=CC(I)=C(c1ccccc1)c1ccccc1	32.8
c1c[nH]c(-c2cccc3nsnc23)c1	> 100
Cn1c2ccccc2c2ccc3c(c21)C(=O)c1ccc2c4ccccc4n(C)c2c1C3=O	> 100
Cc1ccc(-c2cc(-c3ccco3)c(C#N)c(=S)[nH]2)cc1	> 100
COCOc1ccc(C(=O)Oc2cccc3c2OC(C)(C)O3)c(OCOC)c1	> 100
